# Source: patent US20120238554A1, “SALTS OF POTASSIUM ATP CHANNEL OPENERS AND USES THEREOF” (priority 2007, published 2012)
# Legend:
# [1] = tested on: patients with elevated fasting triglycerides; assay: Diazoxide treatment of hypertriglyceridemia, 7 to 49 days: fasting triglycerides, LDL-cholesterol; assay type: in vivo, human; conditions: for fasting triglycerides reduced: titrated patients
# Experimental: All patients were dosed once per day for an uninterrupted period of time.
# Patients were placed on a low fat diet at the start of treatment which continued to the end of treatment.
# Each subject's baseline circulating triglyceride level was calculated as the average of two measurements of fasting triglycerides taken approximately two weeks apart, with the second taken predose on the first day of treatment.
# [2] = Moisture sorption analysis; assay type: physicochemical
# Experimental: Moisture Sorption Analysis was performed with a Hiden IGAsorp Moisture Sorption Instrument, Samples were first dried at 0% relative humidity at 25° C. until an equilibrium weight was reached, or for a maximum of 4 hours. Samples were then subjected to an isothermal (25° C.) scan from 10-90% relative humidity in steps of 10%. The samples were allowed to equilibrate to an asymptotic weight at each point for a maximum of 4 hours. Following absorption, a desorption scan from […] relative humidity (at 25° C.) was run in steps of −10%, again allowing a maximum of 4 hours for the samples to equilibrate. The resulting samples after desorption were dried at 80° C. for two hours and analyzed by XRPD.
# [3] = Slurry studies of inter-conversion of the solid form; conditions: room temperature, no light, 14 days; water, isopropyl alcohol, dichloromethane, toluene
# obese subjects = assay: Single 200 mg dose study: fasting glucose, insulin, NEFA, serum Na, K, creatinine; conditions: either formulation
# Experimental: Three exploratory endpoints were evaluated in the study. Blood glucose, insulin and non-esterified fatty acids (NEFA) were measured prior to dosing and at 1, 3, 6, 9, 12, 24, and 48 hours post dosing. Blood glucose and insulin levels were also assessed at end of study. Data collected at times 1, 3, 24, and 48 hours after dose administration were obtained under fasting conditions. The remaining data points were post-prandial measures.
# [4] = Form conversion and degradation under thermal stress (60° C.); conditions: 60° C., closed, protected from light, 7 and 14 days
# Experimental: Studies were also conducted to evaluate the likelihood for conversion and degradation under thermal stress.
# [5] = tested on: Zucker Diabetic Fatty (ZDF) rats; conditions: 150 mg/kg/day, 8 weeks; cited from earlier work
# [6] = tested on: patients with primary pulmonary hypertension; conditions: cited from earlier work
# [7] = tested on: cardiomyocytes from the infarct border zone; conditions: cardiomyocytes from the infarct border zone (74 ms without, sham 41 ms); cited from earlier work
# [8] = Solubility in 100 mM phosphate buffer with titration, 18 h slurry (Table 15); assay type: physicochemical; conditions: thermodynamic from solid, ambient
# Experimental: Each determination was carried out in duplicate, slurrying each sample in a 100 mM phosphate buffer solution, pH 7.00. […] After this time all samples were centrifuged, and the supernatant was diluted with mobile phase (MeCN/Water.).
# [9] = tested on: barbital-anesthetized open-chest pigs; conditions: 3.5 mg/kg IV, 30 min occlusion, 3 h reflow, n=7; cited from earlier work
# [10] = tested on: person with pulmonary hypertension; conditions: oral diazoxide over six years; cited from earlier work
smiles,measurement,setting,value
"CC1=NS(=O)(=O)c2cc(Cl)ccc2N1 [diazoxide, 7-chloro-3-methyl-2H-1,2,4-benzothiadiazine 1,1 dioxide]",reductions in fasting triglycerides,"[1]; 100 mg per day diazoxide equivalent as Diazoxide Choline Controlled-Release Tablets, 7 days",38%
same,reductions in fasting triglycerides,"[1]; 100 mg per day diazoxide equivalent, 14 days",18%
same,reductions in fasting triglycerides,"[1]; 150 mg for 5 days then 300 mg for 9 days, at 7 and 14 days",50%
same,reductions in fasting triglycerides,"[1]; 200 mg per day diazoxide equivalent, 7 days",23%
same,reductions in fasting triglycerides,"[1]; 200 mg per day diazoxide equivalent, 14 days",20%
same,reductions in fasting triglycerides,"[1]; 300 mg per day diazoxide equivalent, 7 days",18%
same,reductions in fasting triglycerides,"[1]; 300 mg per day diazoxide equivalent, 14 days",29%
same,reductions in fasting triglycerides,"[1]; 400 mg per day diazoxide equivalent, 7 days",50%
same,rise in LDL-cholesterol,"[1]; Patient 13, day 21",6.7%
same,rise in LDL-cholesterol,"[1]; Patient 13, day 42",11%
same,reductions in LDL-cholesterol,[1]; patient 8,−8.6%
same,reductions in LDL-cholesterol,[1]; patient 9,−15.3%
same,fasting triglycerides reduced,[1]; end of treatment with 150 mg,21%
same,fasting triglycerides reduced,[1]; end of treatment with 200 mg,31%
same,fasting triglycerides reduced,[1]; end of treatment with 250 mg,38%
same,fasting triglycerides reduced,[1]; end of treatment with 300 mg,38%
same,fasting triglycerides reduced,[1]; end of treatment with 350 mg,49%
same,crystalline form after moisture sorption/desorption (XRPD),[2],same crystalline form
same,hydrate formation (hysteresis upon desorption),[2]; 25° C.,does not form a stable hydrate
same,Moisture Sorption (hygroscopicity),"[2]; 25° C., listed as free form diazoxide",non-hygroscopic
same,water absorbed,"[2]; 60% RH, 25° C.",approximately 0.04 wt %
same,water absorbed,"[2]; 90% RH, 25° C.",~0.20 wt %
same,inter-conversion of the solid form in slurry,[3],did not convert to alternate crystal forms
same,fasting glucose,obese subjects; 24 or 48 hours after dose administration,no evidence for a significant increase in fasting glucose
same,fasting insulin,obese subjects; after the single 200 mg dose,no evidence for a reduction in fasting insulin
same,"form conversion and degradation under thermal stress (XRPD, DSC)",[4],no conversion or degradation
same,"hepatic triglycerides, long chain acyl-CoA and cholesterol contents",[5],decreased
same,change in pulmonary artery pressure,"[6]; injected into the pulmonary artery, nine patients",no significant change
same,patients unable to tolerate the drug,[6]; oral diazoxide given to seven patients,Five
same,action potential duration,[7],42 ms
same,solubility at 18 h,"[8]; pH 6.9, aqueous buffer, pH after slurry 6.90",70 µg/mL
same,solubility at 18 h,"[8]; pH 7.31, aqueous buffer, pH after slurry 7.31",70 µg/mL
same,Infarct size (percentage of the area at risk),[9],14.6±7.4%
same,pulmonary arterial pressure,[10],reduced to normal levels
